Results on three molecules are retold here after patent publication US20050245473A1, “Proliferation- and differentiation-modulating agents and uses therefor” (priority 2003, published 2005).

Common to all, as to format: cell-based
In test [1] the test system is transglutaminase-1 promoter (TG-1 Luc) in KJD-1/SV40 cells. In words: TG-1 Luc reporter assay in KJD-1/SV40 squamous cell carcinoma cells. The note with it: proliferating KJD-1/SV40 cells; TPA 50 ng/ml for 48 hours where used; FIG. 6. Here is the method:
(§1) Human epidermal keratinocytes (HEKs) were isolated and cultured from neonatal foreskins as described (1). The SCC cell line, KJD-1/SV40, were grown in culture as previously reported (2). Growth arrest and differentiation was induced by maintaining confluent cells in culture over 48 hours or by treatment with the protein kinase C (PKC) activator, 12-Otetradecanoyl-phorbol-13-acetate (TPA, 50 ng/ml for 48 hours). Both these treatment regimes induce robust and reproducible differentiation in HEKs but not in SCC cell lines (2, 41-43).
(§2) The human cdc2 promoter construct driving expression of a CAT reporter gene (cdc2-CAT) has been previously described (6). The 2.9kb transglutaminase type 1 promoter linked to a firefly luciferase gene (TG-1 Luc), keratin 10 reporter (K10-Luc), β actin-CAT reporter gene and β actin-luciferase reporter gene have also been previously described (2, 6, 41, 44, 45). β actin-CAT or β actin-Luc reporters were used to normalize for transfection efficiency. The CMV-E2F1 construct was a kind gift from Dr Kristian Helin (16). The CMV-E2F 2-5 constructs were generous gifts from Dr David Livingston (46). The mutant E2F1 constructs, 132E2F1 and 409E2F1, were kindly provided by Dr Joseph Nevins (47). The E2F1 dominant-negative (E2Fd/n) construct codes for amino acids 116-235, spanning for the DNA binding domain and heterodimerisation domain (2). […]
In general terms: A reporter such as luciferase makes a cellular process visible.

The subject of test [2] is keratin 10 promoter linked to a firefly luciferase gene (K10-Luc). In words: K10-Luc reporter assay in transfected human epidermal keratinocytes (HEKs). On the procedure: as §1
(§3) The human cdc2 promoter construct driving expression of a CAT reporter gene (cdc2-CAT) has been previously described (6). The 2.9kb transglutaminase type 1 promoter linked to a firefly luciferase gene (TG-1 Luc), keratin 10 reporter (K10-Luc), β actin-CAT reporter gene and β actin-luciferase reporter gene have also been previously described (2, 6, 41, 44, 45). β actin-CAT or β actin-Luc reporters were used to normalize for transfection efficiency. The CMV-E2F1 construct was a kind gift from Dr Kristian Helin (16). The CMV-E2F 2-5 constructs were generous gifts from Dr David Livingston (46). The mutant E2F1 constructs, 132E2F1 and 409E2F1, were kindly provided by Dr Joseph Nevins (47). The E2F1 dominant-negative (E2Fd/n) construct codes for amino acids 116-235, spanning for the DNA binding domain and heterodimerisation domain (2).
(§4) Transient transfections of cells were performed in 10 cm^2 well, when cells were either 50% or 100% confluent. Reporter activity was assayed 48 hours post-transfection. Transfection protocols for cultured HEKs using Lipofectamine™ (Invitrogen, Australia) and KJD-1/SV40 cells using Effectene (Qiagen, Australia) have been described previously (2). Transfections were performed in triplicate and repeated at least three times.
(§5) Chloramphenicol acetyltransferase assays (CAT) were performed using a CAT ELISA kit (Roche, Australia) as per manufacturer's instructions. The luciferase assay protocol has been previously reported (6, 41).

The subject of test [3] is transglutaminase type 1 promoter linked to a firefly luciferase gene (TG-1 Luc). In words: TG-1 Luc reporter assay in transfected human epidermal keratinocytes (HEKs). Here is the method:
as §1, §3, §4, §5

In test [4] the test system is human cdc2 promoter (cdc2-CAT). In words: cdc2-CAT reporter assay in transfected human epidermal keratinocytes (HEKs). The note with it: proliferating HEKs co-transfected with expression plasmid. Here is the method:
as §1, §2

Setting [5] is: differentiated (confluent or TPA-treated) HEKs co-transfected with expression plasmid, assayed 48 hours post-transfection.
The mark [6] stands for this setting: cultured HEKs induced to differentiate by treatment with TPA (50 ng/ml for 48 hours), FIG. 1.

“Also recorded” adds a separate entry of the source.

“E2Fd/n: E2F1 dominant-negative construct coding for amino acids 116-235, spanning the DNA binding domain and heterodimerisation domain”: the “TG-1 Luc activity” value in test [1] is listed as “not altered”; in test [3] (setting [5]), “superinduce/derepress; also recorded: superinduces/derepresses”; in test [3] (proliferating HEKs transfected with E2Fd/n) it was “not sufficient to induce”. The K10-Luc activity entry in test [2] (setting [5]) is reported as “superinduces/derepresses”. Moreover, in test [4], the “cdc2-CAT reporter activity (proliferation-specific marker)” value is “suppression”.

Regarding `CCCCCCCCCCCCCC(=O)O[C@@H]1[C@@H](C)[C@@]2(O)[C@@H](C=C(CO)C[C@]3(O)C(=O)C(C)=C[C@@H]23)[C@@H]2C(C)(C)[C@]12OC(C)=O` [TPA, 12-O-tetradecanoylphorbol-13-acetate, reference compound], the “TG-1 Luc activity” value is given as “no induction” in test [1] and “increased” in test [3] (setting [6]). Further, in test [2] (setting [6]), the K10-Luc activity result was “increased”.

For the molecule “E2F1: E2F1 transcription factor overexpressed from the CMV-E2F1 expression plasmid”, the K10-Luc activity result in test [2] (setting [5]) is on record as “significantly suppressed”. In addition, in test [3] (setting [5]), the “TG-1 Luc activity” value is reported as “significantly suppressed; also recorded: suppresses”.
